Earlier results as cited in PMC8869242 (Biomedicines, 2022).
Like-named read-outs stand apart in the source and are kept apart here.

Assays:
[1] = system: Ehrlich ascites carcinoma (EAC); settings: cited from earlier work; for mice died during treatment: two injections per week for 2 weeks
[2] = system: endothelial cells (HUVEC); design: method as in PMID 34339726; settings: cited from earlier work
CAM = system: CAM; design: method as in PMID 34339726; settings: concentration of 5 mg/mL; cited from earlier work

SMILES	tumor volume reduction ([1]; i.p. 2 mg/kg, two injections per week for 2 weeks (cumulative 8 mg/kg)) [%]	mice died during treatment ([1]; i.p. 2 mg/kg)	tumor volume reduction ([1]; 3 mg/kg, two injections per week for 2 weeks (cumulative 12 mg/kg)) [%]	mice died during treatment ([1]; 3 mg/kg)	concentration range showing inhibition of migration of endothelial cells (HUVEC) [2] [µM]	angiogenesis in CAM assay (CAM)
O.O.O.O.O=C1[N-]S(=O)(=O)c2ccccc21.O=C1c2ccccc2S(=O)(=O)[N]1[Pd+].c1ccc(-c2cccc(-c3ccccn3)n2)nc1 [[Pd(sac)(terpy)](sac)·4H2O]	67.5	1 of 10				
O.O.O=C1[N-]S(=O)(=O)c2ccccc21.[Cl][Pd+].c1ccc(-c2cccc(-c3ccccn3)n2)nc1 [[PdCl(terpy)](sac)·2H2O]			69.8	1 of 9	12.5 to 50	inhibition of angiogenesis
